Biological target: T1, Purified ERAP1(37-941)-10His (ERAP1) (Homo sapiens, UniProt Q9NZ08)
T1 construct: Purified ERAP1(37-941)-10His (ERAP1); 10His (C)
Assay: ERAP1 mediated hydrolysis of an amide substrate measured in a biochemical system (10-mer decapeptide substrate)
Conditions: 10-mer substrate, 23° C. for 1 h, excitation 279 nm and emission 355 nm; read-out: IC50 vs Decapeptide WRVYEKC(Dnp)ALK-acid (where Dnp is Dinitrophenyl maleimide) (10-mer)
Outline: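 ERAP1(37-941)-10His preincubated with compound in 25 mM Bis-tris propane, 0.05% HPMC, pH 7.75, then reacted 1 h at 23 °C with 10-mer WRVYEKC(Dnp)ALK (100 μM solution added in equal volume). Fluorescence read at ex 279/em 355 nm; IC50 from 4-parameter fit.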

T1 sequence (Q9NZ08 37-941): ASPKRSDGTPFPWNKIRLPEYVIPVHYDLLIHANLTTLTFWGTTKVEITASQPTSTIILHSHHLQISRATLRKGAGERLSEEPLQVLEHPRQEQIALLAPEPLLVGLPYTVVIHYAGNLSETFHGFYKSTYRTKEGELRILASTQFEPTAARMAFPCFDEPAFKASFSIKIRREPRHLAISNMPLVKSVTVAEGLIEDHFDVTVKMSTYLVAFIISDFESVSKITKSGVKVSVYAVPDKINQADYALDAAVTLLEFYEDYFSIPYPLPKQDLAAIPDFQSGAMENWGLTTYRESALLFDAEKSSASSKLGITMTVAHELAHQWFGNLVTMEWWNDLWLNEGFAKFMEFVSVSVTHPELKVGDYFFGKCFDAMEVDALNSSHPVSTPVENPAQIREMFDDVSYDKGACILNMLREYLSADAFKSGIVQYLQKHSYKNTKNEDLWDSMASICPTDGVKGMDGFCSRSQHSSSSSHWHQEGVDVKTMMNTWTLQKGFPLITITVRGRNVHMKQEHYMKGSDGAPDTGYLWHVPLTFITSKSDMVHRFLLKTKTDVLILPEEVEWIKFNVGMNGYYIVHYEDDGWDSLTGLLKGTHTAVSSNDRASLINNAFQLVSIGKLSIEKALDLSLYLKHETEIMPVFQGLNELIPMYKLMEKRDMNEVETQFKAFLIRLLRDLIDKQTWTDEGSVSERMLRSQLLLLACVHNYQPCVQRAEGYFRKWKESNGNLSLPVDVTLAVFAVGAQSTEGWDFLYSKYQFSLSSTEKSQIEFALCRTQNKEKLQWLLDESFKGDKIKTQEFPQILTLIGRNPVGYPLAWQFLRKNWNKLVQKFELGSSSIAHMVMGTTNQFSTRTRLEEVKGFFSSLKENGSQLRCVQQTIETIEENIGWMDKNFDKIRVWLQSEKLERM

Row | IC50 | SMILES
1 | < 0.5 µM | CCc1ccc(C(=O)O)cc1S(=O)(=O)Nc1cc(C(F)(F)F)ccc1-n1ccnc1 [Example 50, 3-(N-(2-(imidazol-1-yl)-5-(trifluoromethyl)phenyl)sulfamoyl)-4-ethylbenzoic acid]
2 | < 0.5 µM | CCc1ccc(C(=O)O)cc1S(=O)(=O)Nc1cc(C(F)(F)F)ccc1-c1ccccc1 [Example 19, 4-ethyl-3-(N-(4-(trifluoromethyl)-[1,1′-biphenyl]-2-yl)sulfamoyl) benzoic acid]
3 | < 0.5 µM | CCc1ccc(C(=O)O)cc1S(=O)(=O)Nc1cc(C(F)(F)F)ccc1-c1ccc(C)s1 [Example 58, 4-ethyl-3-(N-(2-(5-methylthiophen-2-yl)-5-(trifluoromethyl)phenyl)sulfamoyl)benzoic acid]
4 | > 5 µM | COc1ccc(C(=O)O)cc1S(=O)(=O)Nc1cc(C(F)(F)F)ccc1-c1ccc(C)cc1 [Example 47, 4-methoxy-3-(N-(4′-methyl-4-(trifluoromethyl)-[1,1′-biphenyl]-2-yl)sulfamoyl)benzoic acid]
5 | < 0.5 µM | CCc1ccc(C(=O)O)cc1S(=O)(=O)Nc1cc(-n2cnnn2)ccc1-c1cccc(F)c1 [Example 53, 4-ethyl-3-(N-(3′-fluoro-4-(tetrazol-1-yl)-[1,1′-biphenyl]-2-yl)sulfamoyl) benzoic acid]
6 | < 0.5 µM | N#Cc1cc(NS(=O)(=O)c2cc(C(=O)O)ccc2C2CC2)c(-c2ccc(Cl)s2)cc1F [Example 166, 3-(N-(2-(5-chlorothiophen-2-yl)-5-cyano-4-fluorophenyl)sulfamoyl)-4-cyclopropylbenzoic acid]
7 | < 0.5 µM | CCc1ccc(C(=O)O)cc1S(=O)(=O)Nc1cc(S(C)(=O)=O)ccc1-c1ccc(C)s1 [Example 84, 4-ethyl-3-(N-(5-(methylsulfonyl)-2-(5-methylthiophen-2-yl)phenyl)sulfamoyl) benzoic acid]
8 | < 0.5 µM | N#Cc1ccc(-c2ccc(Cl)s2)c(NS(=O)(=O)c2cc(C(=O)O)ccc2C2CC2)c1 [Example 111, 3-(N-(2-(5-chlorothiophen-2-yl)-5-cyanophenyl)sulfamoyl)-4-cyclopropylbenzoic acid]
9 | < 0.5 µM | COc1ccc(C(=O)O)cc1S(=O)(=O)Nc1cc(C(F)(F)F)ccc1-c1ccccc1 [Example 1, 4-methoxy-3-(N-(4-(trifluoromethyl)-[1,1′-biphenyl]-2-yl)sulfamoyl)benzoic acid]
10 | < 0.5 µM | O=C(O)c1ccc(C2CC2)c(S(=O)(=O)Nc2cc(C(F)(F)F)ccc2-c2cccs2)c1 [Example 76, 4-cyclopropyl-3-(N-(2-(thiophen-2-yl)-5-(trifluoromethyl)phenyl)sulfamoyl)benzoic acid]
11 | < 0.5 µM | CCc1ccc(C(=O)O)cc1S(=O)(=O)Nc1cc(C(F)(F)F)ccc1-c1nccs1 [Example 128, 4-ethyl-3-(N-(2-(thiazol-2-yl)-5-(trifluoromethyl)phenyl)sulfamoyl)benzoic acid]
12 | < 0.5 µM | CCc1ccc(C(=O)O)cc1S(=O)(=O)Nc1cc(S(C)(=O)=O)ccc1-c1cccc(F)c1 [Example 33, 4-ethyl-3-(N-(3′-fluoro-4-(methylsulfonyl)-[1,1-biphenyl]-2-yl)sulfamoyl)benzoic acid]
13 | < 0.5 µM | O=C(O)c1ccc(C2CC2)c(S(=O)(=O)Nc2cc(-n3cnnn3)c(Cl)cc2-c2ccccn2)c1 [Example 187, 3-(N-(4-chloro-2-(pyridin-2-yl)-5-(tetrazol-1-yl)phenyl)sulfamoyl)-4-cyclopropylbenzoic acid]
14 | < 0.5 µM | O=C(O)c1ccc(C2CC2)c(S(=O)(=O)Nc2cc(-n3cnnn3)c(F)cc2-c2ccccn2)c1 [Example 190, 4-cyclopropyl-3-(N-(4-fluoro-2-(pyridin-2-yl)-5-(tetrazol-1-yl)phenyl)sulfamoyl)benzoic acid]
15 | < 0.5 µM | N#Cc1cc(NS(=O)(=O)c2cc(C(=O)O)ccc2C2CC2)c(-n2cccc2)cc1Cl [Example 161, 3-(N-(4-chloro-5-cyano-2-(pyrrol-1-yl)phenyl)sulfamoyl)-4-cyclopropylbenzoic acid]
16 | < 0.5 µM | COc1ccc(C(=O)O)cc1S(=O)(=O)Nc1cc(C(F)(F)F)ccc1-c1ccc(C)s1 [Example 79, 4-methoxy-3-(N-(2-(5-methylthiophen-2-yl)-5-(trifluoromethyl)phenyl)sulfamoyl)benzoic acid]
17 | < 0.5 µM | Cc1oncc1-c1ccc(-c2ccc(Cl)s2)c(NS(=O)(=O)c2cc(C(=O)O)ccc2C2CC2)c1 [Example 164, 3-(N-(2-(5-chlorothiophen-2-yl)-5-(5-methylisoxazol-4-yl)phenyl)sulfamoyl)-4-cyclopropylbenzoic acid]
18 | < 5 µM | COc1ccc(C(=O)O)cc1S(=O)(=O)Nc1cc(C(F)(F)F)ccc1-c1ccccc1C#N [Example 13, 3-(N-(2′-cyano-4-(trifluoromethyl)-[1,1′-biphenyl]-2-yl)sulfamoyl)-4-methoxybenzoic acid]
19 | < 0.5 µM | Cc1cc(C#N)cc(NS(=O)(=O)c2cc(C(=O)O)ccc2C2CC2)c1-c1ccc(Cl)s1 [Example 177, 3-(N-(2-(5-chlorothiophen-2-yl)-5-cyano-3-methylphenyl)sulfamoyl)-4-cyclopropylbenzoic acid]
20 | < 0.5 µM | CCc1ccc(C(=O)O)cc1S(=O)(=O)Nc1cc(S(C)(=O)=O)ccc1-n1cccc1 [Example 108, 4-ethyl-3-(N-(5-(methylsulfonyl)-2-(pyrrol-1-yl)phenyl)sulfamoyl)benzoic acid]
21 | < 0.5 µM | COc1ccc(C(=O)O)cc1S(=O)(=O)Nc1cc(C(F)(F)F)ccc1-c1ccc(C#N)s1 [Example 125, 3-(N-(2-(5-cyanothiophen-2-yl)-5-(trifluoromethyl)phenyl)sulfamoyl)-4-methoxybenzoic acid]

More lines, now with the values behind:

Row | SMILES | IC50
22 | COc1ccc(C(=O)O)cc1S(=O)(=O)Nc1cc(C#N)ccc1-c1ccccc1 [Example 60, 3-(N-(4-cyano-[1,1′-biphenyl]-2-yl)sulfamoyl)-4-methoxybenzoic acid] | < 0.5 µM
23 | COc1ccccc1-c1ccc(C(F)(F)F)cc1NS(=O)(=O)c1cc(C(=O)O)ccc1OC [Example 11, 4-methoxy-3-(N-(2′-methoxy-4-(trifluoromethyl)-[1,1′-biphenyl]-2-yl)sulfamoyl)benzoic acid] | < 5 µM
24 | N#Cc1ccc(-c2ccccn2)c(NS(=O)(=O)c2cc(C(=O)O)ccc2C2CC2)c1 [Example 83, 3-(N-(5-cyano-2-(pyridin-2-yl)phenyl)sulfamoyl)-4-cyclopropylbenzoic acid] | < 0.5 µM
25 | Cc1ccc(-c2ccc(C(F)(F)F)cc2NS(=O)(=O)c2cc(C(=O)O)ccc2C2CC2)s1 [Example 86, 4-cyclopropyl-3-(N-(2-(5-methylthiophen-2-yl)-5-(trifluoromethyl)phenyl)sulfamoyl)benzoic acid] | < 0.5 µM
26 | COc1ccc(C(=O)O)cc1S(=O)(=O)Nc1cc(C(F)(F)F)ccc1-c1ccco1 [Example 23, 3-(N-(2-(furan-2-yl)-5-(trifluoromethyl)phenyl)sulfamoyl)-4-methoxybenzoic acid] | < 0.5 µM
27 | COc1ccc(C(=O)O)cc1S(=O)(=O)Nc1cc(-c2nnn[nH]2)ccc1-c1cccs1 [Example 65, 3-(N-(5-(tetrazol-5-yl)-2-(thiophen-2-yl)phenyl)sulfamoyl)-4-methoxybenzoic acid] | < 0.5 µM
28 | CCc1ccc(C(=O)O)cc1S(=O)(=O)Nc1cc(C(N)=O)ccc1-c1ccccn1 [Example 104, 3-(N-(5-carbamoyl-2-(pyridin-2-yl)phenyl)sulfamoyl)-4-ethylbenzoic acid] | < 0.5 µM
29 | O=C(O)c1ccc(C2CC2)c(S(=O)(=O)Nc2cc(-c3ccns3)ccc2-c2ccc(Cl)s2)c1 [Example 141, 3-(N-(2-(5-chlorothiophen-2-yl)-5-(isothiazol-5-yl)phenyl)sulfamoyl)-4-cyclopropylbenzoic acid] | < 0.5 µM
30 | CCc1ccc(C(=O)O)cc1S(=O)(=O)Nc1cc(S(C)(=O)=O)ccc1-c1cccnc1 [Example 54, 4-ethyl-3-(N-(5-(methylsulfonyl)-2-(pyridin-3-yl)phenyl)sulfamoyl) benzoic acid] | < 0.5 µM
31 | N#Cc1ccc(-c2ccccn2)c(NS(=O)(=O)c2cc(C(=O)O)ccc2C#N)c1 [Example 175, 4-cyano-3-(N-(5-cyano-2-(pyridin-2-yl)phenyl)sulfamoyl)benzoic acid] | > 5 µM
32 | COc1ccc(C(=O)O)cc1S(=O)(=O)Nc1cc(C(F)(F)F)ccc1-c1cc(C)nn1C [Example 4, 3-(N-(2-(1,3-dimethylpyrazol-5-yl)-5-(trifluoromethyl)phenyl)sulfamoyl)-4-methoxybenzoic acid] | < 5 µM
33 | CS(=O)(=O)c1ccc(-c2ccc(C#N)s2)c(NS(=O)(=O)c2cc(C(=O)O)ccc2C2CC2)c1 [Example 124, 3-(N-(2-(5-cyanothiophen-2-yl)-5-(methylsulfonyl)phenyl)sulfamoyl)-4-cyclopropylbenzoic acid] | < 0.5 µM
34 | Cc1sncc1-c1ccc(-c2ccc(Cl)s2)c(NS(=O)(=O)c2cc(C(=O)O)ccc2C2CC2)c1 [Example 149, 3-(N-(2-(5-chlorothiophen-2-yl)-5-(5-methylisothiazol-4-yl)phenyl)sulfamoyl)-4-cyclopropylbenzoic acid] | < 0.5 µM
35 | COc1ccc(C(=O)O)cc1S(=O)(=O)Nc1cc(C(F)(F)F)ccc1-c1ccoc1 [Example 18, 3-(N-(2-(furan-3-yl)-5-(trifluoromethyl)phenyl)sulfamoyl)-4-methoxybenzoic acid] | < 0.5 µM
36 | O=C(O)c1ccc(C2CC2)c(S(=O)(=O)Nc2cc(C(F)(F)F)ccc2-c2ccc(F)s2)c1 [Example 122, 4-cyclopropyl-3-(N-(2-(5-fluorothiophen-2-yl)-5-(trifluoromethyl)phenyl)sulfamoyl)benzoic acid] | < 0.5 µM
37 | N#Cc1cc(NS(=O)(=O)c2cc(C(=O)O)ccc2C2CC2)c(-c2ccccn2)cc1F [Example 154, 3-(N-(5-cyano-4-fluoro-2-(pyridin-2-yl)phenyl)sulfamoyl)-4-cyclopropylbenzoic acid] | < 0.5 µM

Source: patent US12023333B2, “Phenyl-sulfamoyl.benzoyc acids as ERAP1 modulators” (GREY WOLF THERAPEUTICS LIMITED, priority 2019, dated 2024)
